Measurements from patent publication US12371454B2, “Cyclic peptide compound having Kras inhibitory action” (priority 2019, dated 2025).
Starred links: 1 amine or outer side, 2 acyl side, 3 side chain; linkers in the order of their positions; H or OH if unused. Positions of bridges follow the written chain, without caps; N, C: chain ends. Non-standard residues stand in square brackets, D forms with d. Residues, ends and D or L forms follow the SMILES beside them. *: point of attachment. hPhe(3,5-F2-4-CF3) = N[C@@H](CCc1cc(F)c(C(F)(F)F)c(F)c1)C(=O)O; hPhe(3-Cl-4-CF3) = N[C@@H](CCc1ccc(C(F)(F)F)c(Cl)c1)C(=O)O; hPhe(3-F,4-CF3) = N[C@@H](CCc1ccc(C(F)(F)F)c(F)c1)C(=O)O; NMePhe(4-CF3) = CN[C@@H](Cc1ccc(C(F)(F)F)cc1)C(=O)O; 3Oxa8azabicyclo(3.2.1)octane = C1CC2COCC1N2*; NMePhe(4-Cl) = CN[C@@H](Cc1ccc(Cl)cc1)C(=O)O; NMedβ3hAla = C[C@H](CC(=O)[*:2])N(C)[*:1]; NMeGly(cPent) = CN[C@H](C(=O)O)C1CCCC1; Pro(4,4-F2) = O=C(O)[C@@H]1CC(F)(F)CN1; NMeGly(cBu) = CN[C@H](C(=O)O)C1CCC1; NMeCha = CN[C@@H](CC1CCCCC1)C(=O)O; Hyp = O=C(O)[C@@H]1C[C@@H](O)CN1; NEtLeu = CCN[C@@H](CC(C)C)C(=O)O; NMeAhp(2) = CCCCC[C@H](NC)C(=O)O; NMeChg = CN[C@H](C(=O)O)C1CCCCC1; NMeI = CC[C@H](C)[C@H](NC)C(=O)O; Gly(cBu) = N[C@H](C(=O)O)C1CCC1; NMeD = CN[C@@H](CC(=O)O)C(=O)O; NMeL = CN[C@@H](CC(C)C)C(=O)O; NMePra = C#CC[C@H](NC)C(=O)O; NMeV = CN[C@H](C(=O)O)C(C)C; d(β3hA) = C[C@@H](N)CC(=O)O; NMeS = CN[C@@H](CO)C(=O)O; NMeA = CN[C@@H](C)C(=O)O; Piperidide = C1CCN(*)CC1; Pyrrolidide = C1CCN(*)C1; Ac5c = NC1(C(=O)O)CCCC1; Aze = O=C(O)[C@@H]1CCN1; Cyclopropyl = C1CC1*; Sar = CNCC(=O)O; Propyl = CCC*

test system: Human pancreatic cancer cell line AsPC-1; assay: Measurement of AsPC-1 cell growth inhibition (AsPC-1 CGI); assay type: cell-based; settings: 96 h
Method in brief: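 AsPC-1 cells in 15% FBS RPMI-1640 were exposed to test compound for 96 hours at 37° C, with CellTiter-Glo as endpoint.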

Structure (SMILES)	IC50 [nM]
C#CC[C@H]1C(=O)N[C@@H]([C@@H](C)CC)C(=O)N(C)[C@@H](C)C(=O)N2CC[C@H]2C(=O)N(C)[C@@H](CC2CCCCC2)C(=O)N(C)CC(=O)N[C@@H](CCc2ccc(C(F)(F)F)c(Cl)c2)C(=O)N2CCC[C@H]2C(=O)NC2(CCCC2)C(=O)N(C)[C@@H](C(C)C)C(=O)N(C)[C@H](C(=O)N2CCCCC2)CC(=O)N1C [Compound 559] ([NMePra]I[NMeA][Aze][NMeCha][Sar][hPhe(3-Cl-4-CF3)]P[Ac5c][NMeV][NMeD]-Piperidide; lactam N-11)	100 to 500
CC[C@H](C)[C@@H]1NC(=O)[C@H](CC(C)C)N(C)C(=O)C[C@@H](C(=O)N2CCCCC2)N(C)C(=O)[C@H](C2CCCC2)N(C)C(=O)C2(CCCC2)NC(=O)[C@@H]2CCCN2C(=O)[C@H](CCc2ccc(C(F)(F)F)c(F)c2)NC(=O)CN(C)C(=O)[C@H](CC2CCCCC2)N(C)C(=O)[C@@H]2CCN2C(=O)[C@H](C)N(C)C1=O [Compound 563] ([NMeL]I[NMeA][Aze][NMeCha][Sar][hPhe(3-F,4-CF3)]P[Ac5c][NMeGly(cPent)][NMeD]-Piperidide; lactam N-11)	20 to 50
CC[C@H](C)[C@@H]1NC(=O)[C@H](CC(C)C)N(C)C(=O)C[C@@H](C(=O)N(C)C)NC(=O)[C@H]([C@@H](C)CC)N(C)C(=O)C2(CCCC2)NC(=O)[C@@H]2CCCN2C(=O)[C@H](CCc2ccc(C(F)(F)F)c(Cl)c2)NC(=O)CN(C)C(=O)[C@H](CC2CCCCC2)N(C)C(=O)[C@@H]2CCN2C(=O)[C@H](C)N(C)C1=O [Compound 568] ([NMeL]I[NMeA][Aze][NMeCha][Sar][hPhe(3-Cl-4-CF3)]P[Ac5c][NMeI]D-NMe2; lactam N-11)	100 to 500
CC[C@H](C)[C@@H]1NC(=O)[C@H](CC2CCCCC2)N(C)C(=O)C[C@@H](C(=O)N2CCCCC2)N(C)C(=O)[C@H](C(C)C)N(C)C(=O)C2(CCCC2)NC(=O)[C@@H]2CCCN2C(=O)[C@H](CCc2ccc(C(F)(F)F)c(Cl)c2)NC(=O)CN(C)C(=O)[C@H](CC2CCCCC2)N(C)C(=O)[C@@H]2CCN2C(=O)[C@H](C)N(C)C1=O [Compound 572] ([NMeCha]I[NMeA][Aze][NMeCha][Sar][hPhe(3-Cl-4-CF3)]P[Ac5c][NMeV][NMeD]-Piperidide; lactam N-11)	100 to 500
CC(C)C[C@H]1C(=O)N[C@@H](C2CCC2)C(=O)N(C)[C@@H](C)C(=O)N2CC[C@H]2C(=O)N(C)[C@@H](CC2CCCCC2)C(=O)N(C)CC(=O)N[C@@H](CCc2ccc(C(F)(F)F)c(Cl)c2)C(=O)N2CCC[C@H]2C(=O)NC2(CCCC2)C(=O)N(C)[C@@H](C(C)C)C(=O)N[C@H](C)CC(=O)N1C [Compound 580] (cyclo([Ac5c][NMeV][d(β3hA)][NMeL][Gly(cBu)][NMeA][Aze][NMeCha][Sar][hPhe(3-Cl-4-CF3)]P))	100 to 500
CC[C@H](C)[C@@H]1NC(=O)[C@H](CC(C)C)N(C)C(=O)C[C@@H](C(=O)N2CCCCC2)N(C)C(=O)[C@H](C(C)C)N(C)C(=O)C2(CCCC2)NC(=O)[C@@H]2CCCN2C(=O)[C@H](CCc2ccc(C(F)(F)F)c(F)c2)NC(=O)CN(C)C(=O)[C@H](CC2CCCCC2)N(C)C(=O)[C@@H]2CCN2C(=O)CN(C)C1=O [Compound 599] ([NMeL]I[Sar][Aze][NMeCha][Sar][hPhe(3-F,4-CF3)]P[Ac5c][NMeV][NMeD]-Piperidide; lactam N-11)	100 to 500
CC[C@H](C)[C@@H]1NC(=O)[C@H](CC(C)C)N(C)C(=O)C[C@@H](C)N(C)C(=O)[C@H](C2CCCCC2)N(C)C(=O)C2(CCCC2)NC(=O)[C@@H]2CC(F)(F)CN2C(=O)[C@H](CCc2cc(F)c(C(F)(F)F)c(F)c2)NC(=O)CN(C)C(=O)[C@H](Cc2ccc(C(F)(F)F)cc2)N(C)C(=O)[C@@H]2CCN2C(=O)[C@H](C)N(C)C1=O [Compound 606] (cyclo([Ac5c][NMeChg][NMedβ3hAla][NMeL]I[NMeA][Aze][NMePhe(4-CF3)][Sar][hPhe(3,5-F2-4-CF3)][Pro(4,4-F2)]))	100 to 500
CCCCC[C@H]1C(=O)N[C@@H]([C@@H](C)CC)C(=O)N(C)[C@@H](C)C(=O)N2CC[C@H]2C(=O)N(C)[C@@H](COCCC)C(=O)N(C)CC(=O)N[C@@H](CCc2ccc(C(F)(F)F)c(Cl)c2)C(=O)N2CCC[C@H]2C(=O)NC2(CCCC2)C(=O)N(C)[C@@H](C2CCCC2)C(=O)N(C)[C@H](C(=O)N2C3CCC2COC3)CC(=O)N1C [Compound 622] ([NMeAhp(2)]I[NMeA][Aze][NMeS](Propyl)[Sar][hPhe(3-Cl-4-CF3)]P[Ac5c][NMeGly(cPent)][NMeD]-{3Oxa8azabicyclo(3.2.1)octane}; lactam N-11)	20 to 50
CCO[C@@H]1C[C@H]2C(=O)NC3(CCCC3)C(=O)N(C)[C@@H](C3CCCCC3)C(=O)N(C)[C@H](C)CC(=O)N(C)[C@@H](CC(C)C)C(=O)N[C@@H]([C@@H](C)CC)C(=O)N(C)[C@@H](C)C(=O)N3CC[C@H]3C(=O)N(C)[C@@H](Cc3ccc(C(F)(F)F)cc3)C(=O)N(C)CC(=O)N[C@@H](CCc3ccc(C(F)(F)F)c(Cl)c3)C(=O)N2C1 [Compound 652] (cyclo([Ac5c][NMeChg][NMedβ3hAla][NMeL]I[NMeA][Aze][NMePhe(4-CF3)][Sar][hPhe(3-Cl-4-CF3)][Hyp](Et)))	50 to 100
CC[C@H](C)[C@@H]1NC(=O)[C@H](CC(C)C)N(C)C(=O)C[C@@H](C)NC(=O)[C@H](C(C)C)N(C)C(=O)C2(CCCC2)NC(=O)[C@@H]2CCCN2C(=O)[C@H](CCc2ccc(C(F)(F)F)c(Cl)c2)NC(=O)CN(C)C(=O)[C@H](CC2CCCCC2)N(C)C(=O)[C@@H]2CCN2C(=O)CN(C)C1=O [Compound 663] (cyclo([Ac5c][NMeV][d(β3hA)][NMeL]I[Sar][Aze][NMeCha][Sar][hPhe(3-Cl-4-CF3)]P))	100 to 500
CC[C@H](C)[C@@H]1NC(=O)[C@H](CC(C)C)N(CC)C(=O)C[C@@H](C(=O)N2CCCCC2)N(C)C(=O)[C@H](C(C)C)N(C)C(=O)C2(CCCC2)NC(=O)[C@@H]2CCCN2C(=O)[C@H](CCc2ccc(C(F)(F)F)c(Cl)c2)NC(=O)CN(C)C(=O)[C@H](CC2CCCCC2)N(C)C(=O)[C@@H]2CCN2C(=O)[C@H](C)N(C)C1=O [Compound 667] ([NEtLeu]I[NMeA][Aze][NMeCha][Sar][hPhe(3-Cl-4-CF3)]P[Ac5c][NMeV][NMeD]-Piperidide; lactam N-11)	100 to 500
CC[C@H](C)[C@@H]1NC(=O)[C@H](CC(C)C)N(C)C(=O)C[C@@H](C(=O)N2CCCCC2)N(C)C(=O)[C@H](C2CCC2)N(C)C(=O)C2(CCCC2)NC(=O)[C@@H]2CCCN2C(=O)[C@H](CCc2ccc(C(F)(F)F)c(Cl)c2)NC(=O)CN(C)C(=O)[C@H](CC2CCCCC2)N(C)C(=O)[C@@H]2CCN2C(=O)[C@H](C)N(C)C1=O [Compound 672] ([NMeL]I[NMeA][Aze][NMeCha][Sar][hPhe(3-Cl-4-CF3)]P[Ac5c][NMeGly(cBu)][NMeD]-Piperidide; lactam N-11)	100 to 500
CC[C@H](C)[C@@H]1NC(=O)[C@H](CC(C)C)N(C)C(=O)C[C@@H](C(=O)N2CCCCC2)N(C)C(=O)[C@H]([C@@H](C)CC)N(C)C(=O)C2(CCCC2)NC(=O)[C@@H]2CCCN2C(=O)[C@H](CCc2ccc(C(F)(F)F)c(F)c2)NC(=O)CN(C)C(=O)[C@H](C2CCCC2)N(C)C(=O)[C@@H]2CCN2C(=O)[C@H](C)N(C)C1=O [Compound 674] ([NMeL]I[NMeA][Aze][NMeGly(cPent)][Sar][hPhe(3-F,4-CF3)]P[Ac5c][NMeI][NMeD]-Piperidide; lactam N-11)	50 to 100
CC[C@H](C)[C@@H]1NC(=O)[C@H](CC(C)C)N(C)C(=O)C[C@@H](C(=O)N2CCCCC2)N(C)C(=O)[C@H](C(C)C)N(C)C(=O)C2(CCCC2)NC(=O)[C@@H]2CCCN2C(=O)[C@H](CCc2ccc(C(F)(F)F)c(Cl)c2)NC(=O)CN(C)C(=O)[C@H](CC2CCCCC2)N(C)C(=O)[C@@H]2CCN2C(=O)[C@H](COC2CC2)N(C)C1=O [Compound 676] ([NMeL]I[NMeS](Cyclopropyl)[Aze][NMeCha][Sar][hPhe(3-Cl-4-CF3)]P[Ac5c][NMeV][NMeD]-Piperidide; lactam N-11)	100 to 500
CC[C@H](C)[C@@H]1NC(=O)[C@H](CC(C)C)N(C)C(=O)C[C@@H](C(=O)N(C)C)NC(=O)[C@H](C2CCCC2)N(C)C(=O)C2(CCCC2)NC(=O)[C@@H]2CCCN2C(=O)[C@H](CCc2ccc(C(F)(F)F)c(Cl)c2)NC(=O)CN(C)C(=O)[C@H](CC2CCCCC2)N(C)C(=O)[C@@H]2CCN2C(=O)[C@H](C)N(C)C1=O [Compound 677] ([NMeL]I[NMeA][Aze][NMeCha][Sar][hPhe(3-Cl-4-CF3)]P[Ac5c][NMeGly(cPent)]D-NMe2; lactam N-11)	50 to 100
CC[C@H](C)[C@@H]1NC(=O)[C@H](CC(C)C)N(C)C(=O)C[C@@H](C(=O)N2CCCCC2)N(C)C(=O)[C@H](C(C)C)N(C)C(=O)C2(CCCC2)NC(=O)[C@@H]2CCCN2C(=O)[C@H](CCc2ccc(C(F)(F)F)c(Cl)c2)NC(=O)CN(C)C(=O)[C@H](Cc2ccc(Cl)cc2)N(C)C(=O)[C@@H]2CCN2C(=O)[C@H](C)N(C)C1=O [Compound 680] ([NMeL]I[NMeA][Aze][NMePhe(4-Cl)][Sar][hPhe(3-Cl-4-CF3)]P[Ac5c][NMeV][NMeD]-Piperidide; lactam N-11)	100 to 500
CCCOC[C@H]1C(=O)N(C)CC(=O)N[C@@H](CCc2ccc(C(F)(F)F)c(F)c2)C(=O)N2CCC[C@H]2C(=O)NC2(CCCC2)C(=O)N(C)[C@@H]([C@@H](C)CC)C(=O)N(C)[C@H](C(=O)N2CCCC2)CC(=O)N(C)[C@@H](CC(C)C)C(=O)N[C@@H]([C@@H](C)CC)C(=O)N(C)[C@@H](C)C(=O)N2CC[C@H]2C(=O)N1C [Compound 684] ([NMeL]I[NMeA][Aze][NMeS](Propyl)[Sar][hPhe(3-F,4-CF3)]P[Ac5c][NMeI][NMeD]-Pyrrolidide; lactam N-11)	20 to 50
CCCOC[C@H]1C(=O)N(C)CC(=O)N[C@@H](CCc2ccc(C(F)(F)F)c(F)c2)C(=O)N2CCC[C@H]2C(=O)NC2(CCCC2)C(=O)N(C)[C@@H]([C@@H](C)CC)C(=O)N(C)[C@H](C)CC(=O)N(C)[C@@H](CC(C)C)C(=O)N[C@@H]([C@@H](C)CC)C(=O)N(C)[C@@H](C)C(=O)N2CC[C@H]2C(=O)N1C [Compound 694] (cyclo([Ac5c][NMeI][NMedβ3hAla][NMeL]I[NMeA][Aze][NMeS](Propyl)[Sar][hPhe(3-F,4-CF3)]P))	20 to 50
